“Also recorded” adds a separate entry of the source. Like-named read-outs stand apart in the source and are kept apart here.
How the values were obtained:
GAL-4-PPAR-gamma chimera = molecular target: T1, GAL-4-PPAR-gamma chimera (Homo sapiens, UniProt P37231); conditions: compounds isolated from EtOH extract of licorice; cited from earlier work
T1 construct: GAL-4 (fusion partner of the chimera)

msP rats = test: Central PPAR antagonist GW9662 on andrographolide-induced reduction of alcohol intake in msP rats; type: in vivo, rat
Experimental: GW9662, purchased from Tocris (Bristol, UK), was dissolved in 10% DMSO and 3% Tween 80 and the final volume (5 μg/μl) was adjusted adding distilled water. GW9662 was injected ICV in a volume of 1 μl per rat by means of a stainless-steel injector 2.5 mm longer than the guide cannula, so that its tip protruded into the ventricle.
A 22-gauge guide cannula for intracerebroventricular (ICV) drug injections was stereotaxically implanted into the lateral cerebroventricle with the following coordinates: anteroposterior (AP)=1.0; lateral (L)=1.8; ventral (V)=2.0 with reference to bregma.
A widely used method for testing fluid preference is the two-bottle choice paradigm, in which water and 10% (v/v) alcohol solution were offered in graduated drinking tubes equipped with metallic drinking spouts and their consumption was measured by reading the volume consumed from the graduated tubes. Food intake was measured by weighing the food containers and taking into account spillage. Alcohol, water and food intakes are expressed as g/kg to reduce the influence of differences in body weight.
To examine whether the effect of andrographolide on alcohol intake is mediated by brain PPAR receptors, another group of msP rats (N=31) was treated ICV with 5 μg/rat of the PPAR antagonist GW9662 and then injected with andrographolide (10 mg/kg) or its vehicle. In a between-subject design each group of animals (N=7-8/group) received a different drug dose for 6 consecutive days. GW9662 or its vehicle were administered twice daily at 12 hours and 30 minutes before the beginning of the dark period of the light-dark cycle. Andrographolide was given immediately after GW9662 administrations.
Alcohol, water, and food intake was recorded at 0.5, 2, 8 and 24 hours from the moment that alcohol was made available.

PPARγ [1] = molecular target: T2, PPARγ (Homo sapiens, UniProt P37231); conditions: cited from earlier work
T2 sequence (P37231 1-505): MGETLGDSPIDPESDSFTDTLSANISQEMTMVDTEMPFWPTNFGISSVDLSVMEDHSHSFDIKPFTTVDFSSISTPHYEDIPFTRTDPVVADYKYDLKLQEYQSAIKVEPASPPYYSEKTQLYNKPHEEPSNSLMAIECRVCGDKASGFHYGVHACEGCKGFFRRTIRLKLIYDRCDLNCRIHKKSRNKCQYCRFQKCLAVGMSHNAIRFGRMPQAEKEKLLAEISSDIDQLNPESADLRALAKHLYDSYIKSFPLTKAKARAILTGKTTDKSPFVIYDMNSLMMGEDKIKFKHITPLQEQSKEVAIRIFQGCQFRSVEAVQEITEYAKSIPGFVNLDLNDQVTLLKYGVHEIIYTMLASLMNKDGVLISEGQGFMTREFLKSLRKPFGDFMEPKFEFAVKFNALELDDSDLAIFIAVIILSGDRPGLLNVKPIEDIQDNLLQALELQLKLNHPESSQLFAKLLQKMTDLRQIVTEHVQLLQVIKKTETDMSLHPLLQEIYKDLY

PPARγ [2] = molecular target: T3, PPARγ (Mus musculus, UniProt P37238); conditions: 3T3-L1 preadipocytes; cited from earlier work
T3 construct: host or cells: 3T3-L1
T3 sequence (P37238 1-505): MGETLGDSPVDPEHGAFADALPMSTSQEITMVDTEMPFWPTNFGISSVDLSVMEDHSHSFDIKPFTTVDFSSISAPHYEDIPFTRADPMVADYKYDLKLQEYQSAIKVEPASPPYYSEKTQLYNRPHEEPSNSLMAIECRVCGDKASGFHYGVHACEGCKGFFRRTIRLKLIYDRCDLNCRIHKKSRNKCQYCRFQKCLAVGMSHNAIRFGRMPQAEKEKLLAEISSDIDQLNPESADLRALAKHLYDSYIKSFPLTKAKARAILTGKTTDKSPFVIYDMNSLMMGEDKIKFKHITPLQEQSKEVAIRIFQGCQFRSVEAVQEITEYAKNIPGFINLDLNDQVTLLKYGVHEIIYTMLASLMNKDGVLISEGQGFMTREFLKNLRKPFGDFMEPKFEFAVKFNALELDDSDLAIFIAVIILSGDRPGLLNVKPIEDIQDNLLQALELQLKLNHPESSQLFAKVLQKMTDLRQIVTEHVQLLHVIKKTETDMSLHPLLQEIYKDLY

PPARγ [3] = molecular target: T2, PPARγ; conditions: cited from earlier work; remark: listed apart in the source
PPARγ [4] = molecular target: T3, PPARγ; conditions: 3T3-L1 cells; cited from earlier work
[5] = molecular target: T4, PPAR δ ligand binding domain (Homo sapiens, UniProt Q03181); conditions: cited from earlier work
T4 sequence (Q03181 211-439 limits assumed): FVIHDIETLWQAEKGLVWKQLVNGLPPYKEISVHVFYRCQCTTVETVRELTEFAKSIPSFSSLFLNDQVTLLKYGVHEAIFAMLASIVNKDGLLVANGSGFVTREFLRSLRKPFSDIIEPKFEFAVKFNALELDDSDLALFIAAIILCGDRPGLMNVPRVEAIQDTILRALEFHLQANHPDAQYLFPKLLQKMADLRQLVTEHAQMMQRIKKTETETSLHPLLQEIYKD

PPAR α = molecular target: T5, PPAR α (Mus musculus, UniProt P23204); conditions: 3T3-L1 cells; cited from earlier work
T5 construct: host or cells: 3T3-L1
T5 sequence (P23204 1-468): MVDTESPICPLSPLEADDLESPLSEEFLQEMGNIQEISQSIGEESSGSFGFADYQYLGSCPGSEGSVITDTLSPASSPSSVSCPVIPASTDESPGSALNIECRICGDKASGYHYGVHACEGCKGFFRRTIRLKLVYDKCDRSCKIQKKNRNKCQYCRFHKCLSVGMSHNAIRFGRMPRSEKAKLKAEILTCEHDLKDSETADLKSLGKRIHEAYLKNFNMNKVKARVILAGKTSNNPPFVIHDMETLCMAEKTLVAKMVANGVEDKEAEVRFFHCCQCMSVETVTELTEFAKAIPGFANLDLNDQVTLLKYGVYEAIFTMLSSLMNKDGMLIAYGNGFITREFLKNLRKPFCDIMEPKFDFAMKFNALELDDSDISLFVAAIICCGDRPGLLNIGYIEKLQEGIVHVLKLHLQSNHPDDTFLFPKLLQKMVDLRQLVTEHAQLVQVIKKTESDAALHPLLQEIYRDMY

[6] = molecular target: PPAR γ ligand binding domain (Homo sapiens, UniProt P37231); conditions: cited from earlier work

T1 sequence (P37231 with tags, fused parts or gaps limits assumed): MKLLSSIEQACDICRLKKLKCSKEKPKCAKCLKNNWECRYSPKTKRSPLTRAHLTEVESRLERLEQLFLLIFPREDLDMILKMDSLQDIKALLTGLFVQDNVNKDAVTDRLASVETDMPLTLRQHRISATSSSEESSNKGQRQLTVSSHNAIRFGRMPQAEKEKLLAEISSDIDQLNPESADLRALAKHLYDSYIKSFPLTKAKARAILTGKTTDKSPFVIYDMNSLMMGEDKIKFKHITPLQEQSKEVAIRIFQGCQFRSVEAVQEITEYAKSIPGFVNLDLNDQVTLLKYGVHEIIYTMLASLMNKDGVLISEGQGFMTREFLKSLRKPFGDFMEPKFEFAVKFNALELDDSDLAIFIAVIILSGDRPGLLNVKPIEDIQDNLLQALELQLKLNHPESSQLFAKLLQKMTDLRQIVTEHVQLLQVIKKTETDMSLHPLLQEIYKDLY

CC(C)=CCc1cc([C@@H]2CC(=O)c3ccc(O)c(CC=C(C)C)c3O2)ccc1O [glabrol]
PPAR-gamma ligand-binding activity (GAL-4-PPAR-gamma chimera): significant PPAR-gamma ligand-binding activity

CC1(C)C=Cc2c(ccc(-c3coc4cc(O)ccc4c3=O)c2O)O1 [glabrone]
PPAR-gamma ligand-binding activity (GAL-4-PPAR-gamma chimera): significant PPAR-gamma ligand-binding activity

O=C(Nc1ccccc1)c1cc([N+](=O)[O-])ccc1Cl [GW9662]
alcohol drinking (msP rats; GW9662 5 μg/rat ICV alone, twice daily, 6 days, p>0.05): no similar effect
blockade of the andrographolide effect on alcohol drinking (msP rats; GW9662 5 μg/rat ICV given before andrographolide 10 mg/kg): blocked the effect of andrographolide at 8 and 24 hours starting from the third day of treatment; also recorded: completely prevents the andrographolide effect on alcohol drinking

CC1(C)C=Cc2c(ccc3cc(-c4ccc(O)cc4O)c(=O)oc23)O1 [kanzonol W]
PPAR-gamma ligand-binding activity (GAL-4-PPAR-gamma chimera): significant PPAR-gamma ligand-binding activity

O=c1c(-c2ccc(O)cc2)coc2cc(O)cc(O)c12 [genistein]
activation of PPARγ (PPARγ [1]): potent activators of PPARγ

COc1ccc([C@@H]2COc3cc(O)ccc3C2)c(O)c1O [(3R)-2′,3′,7-trihydroxy-4′-methoxyisoflavan]
PPAR-gamma ligand-binding activity (GAL-4-PPAR-gamma chimera): significant PPAR-gamma ligand-binding activity

CC(C)=CCc1c(O)cc(O)c2c(=O)c(-c3ccc(O)c(O)c3)coc12 [gancaonin L]
PPAR-gamma ligand-binding activity (GAL-4-PPAR-gamma chimera): significant PPAR-gamma ligand-binding activity

COc1cc(O)ccc1/C=C/C(=O)c1ccc(O)cc1 [echinatin]
PPAR-gamma ligand-binding activity (GAL-4-PPAR-gamma chimera): significant PPAR-gamma ligand-binding activity

CC(C)=CCc1c(O)ccc([C@@H]2COc3c(ccc(O)c3CC=C(C)C)C2)c1O [kanzonol X]
PPAR-gamma ligand-binding activity (GAL-4-PPAR-gamma chimera): significant PPAR-gamma ligand-binding activity

CC1=CC(=O)CC(C)(C)[C@@]1(O)/C=C/C(C)=C\C(=O)O [abscisic acid]
activity of PPARγ (PPARγ [2]): increase the activity of PPARγ

CC(C)=CCc1cc([C@H]2Oc3cc(O)ccc3C[C@H]2O)ccc1O [(2R,3R)-3,4′,7-trihydroxy-3′-prenylflavane]
PPAR-gamma ligand-binding activity (GAL-4-PPAR-gamma chimera): significant PPAR-gamma ligand-binding activity

CC(C)=CCc1cc([C@@H]2CC(=O)c3ccc4c(c3O2)C=CC(C)(C)O4)ccc1O [shinflavanone]
PPAR-gamma ligand-binding activity (GAL-4-PPAR-gamma chimera): significant PPAR-gamma ligand-binding activity

CC(C)=CCCC(C)CCO (stereo not drawn) [Citronellol, citronellol]
activation of PPARγ (PPARγ [3]): activate PPARγ

COc1ccc(-c2coc3cc(O)cc(O)c3c2=O)cc1 [biochanin A]
activation of PPARγ (PPARγ [1]): potent activators of PPARγ

CC(C)=CCC/C(C)=C/CO [geraniol]
activation of PPARγ (PPARγ [3]): activate PPARγ

CCCC\C=C/C=C/C=C\CCCCCCCC(=O)O [PUA, punicic acid]
PPAR γ reporter activity (PPARγ [4]): dose-dependent increase
binding to PPAR δ ligand binding domain [5]: bind
PPAR α reporter activity (PPAR α): dose-dependent increase
binding to PPAR γ ligand binding domain [6]: bind

CC1(C)C=Cc2c(ccc3c2OC[C@@H](c2cc(C=O)c(O)cc2O)C3)O1 [5′-formylglabridin]
PPAR-gamma ligand-binding activity (GAL-4-PPAR-gamma chimera): significant PPAR-gamma ligand-binding activity

CC1(C)C=Cc2c(ccc3c2OC[C@H]2c4ccc(O)cc4O[C@@H]32)O1 [shinpterocarpin]
PPAR-gamma ligand-binding activity (GAL-4-PPAR-gamma chimera): significant PPAR-gamma ligand-binding activity

CC(C)=CCC/C(C)=C\CO [nerol]
activation of PPARγ (PPARγ [3]): not

licoflavanone A
PPAR-gamma ligand-binding activity (GAL-4-PPAR-gamma chimera): significant PPAR-gamma ligand-binding activity

From US20140072662A1, “Andrographis Paniculata Compositions and Methods for Treatment of Addictions” (Omeros Corporation, priority 2012, published 2014)
